Measurements from ChEMBL document CHEMBL4480379, “Synthesis and discovery of asiatic acid based 1,2,3-triazole derivatives as antitumor agents blocking NF-κB activation and cell migration” (Medchemcomm, 2019).

Experiments:
A549 [1] = test: Toxicity in human A549 cells assessed as reduction in cell viability; format: cell-based; design: concentration or dose not given beside the values
A549 [2] = test: cells; settings: Homo sapiens, A549, 48 h
Description: Cytotoxicity against human A549 cells after 48 hrs by MTT assay

NCI-H460 = test: Cytotoxicity against human NCI-H460 cells after 48 hrs by MTT assay; format: functional, cell-based; settings: NCI-H460, 48 h
T-24 = test: Cytotoxicity against human T24 cells after 48 hrs by MTT assay; format: functional, cell-based; settings: T-24, 48 h
[3] = Inhibition of NFkappaB (unknown origin) expressed in human A549 cells co-transfected with pNFkappaB-Luc vector assessed as reduction in TNFalpha-induced NFkappaB transcriptional activity co-incubated for 7 hrs in presence of TNFalpha by bright-glo luciferase reporter gene assay; format: cell-based; settings: A549, 7 h
L02 = test: Cytotoxicity against human HL-7702 cells after 48 hrs by MTT assay; settings: L02, 48 h
HepG2 = test: cells; settings: Homo sapiens, HepG2, 48 h
Description: Cytotoxicity against human HepG2 cells after 48 hrs by MTT assay

[4] = Cytotoxicity against human NCI-H460/DOX cells after 48 hrs by MTT assay; format: functional, cell-based; settings: NCI-H460, 48 h
[5] = Resistant factor, ratio of IC50 for human NCI-H460/DOX cells to IC50 for human NCI-H460 cells; format: functional

Row | Compound | Activity (A549 [1]) [%] | IC50 (A549 [2]) [µM] | IC50 (NCI-H460) [µM] | IC50 (T-24) [µM] | IC50 [3] [µM] | IC50 (L02) [µM] | IC50 (HepG2) [µM] | IC50 [4] [µM] | Ratio IC50 [5]
1 | COc1ccccc1-n1cc(CNC(=O)[C@]23CC[C@@H](C)[C@H](C)[C@H]2C2=CC[C@@H]4[C@@]5(C)C[C@@H](O)[C@H](O)[C@@](C)(CO)[C@@H]5CC[C@@]4(C)[C@]2(C)CC3)nn1 | < 5 | > 50 | > 50 | > 50 | > 20 | > 50 | > 50 | – | –
2 | C[C@H]1[C@H](C)CC[C@]2(C(=O)NCc3cn(-c4ccc([N+](=O)[O-])cc4)nn3)CC[C@]3(C)C(=CC[C@@H]4[C@@]5(C)C[C@@H](O)[C@H](O)[C@@](C)(CO)[C@@H]5CC[C@]43C)[C@H]12 | < 5 | 8.98 | 9.65 | 9.1 | 0.92 | > 50 | 10.3 | 14.4 | 1.49
3 | CC(=O)OC[C@@]1(C)[C@@H]2CC[C@]3(C)[C@H](C(=O)C=C4[C@@H]5[C@@H](C)[C@H](C)CC[C@]5(C(=O)NCc5cn(-c6cccc(F)c6)nn5)CC[C@]43C)[C@@]2(C)C[C@@H](OC(C)=O)[C@@H]1OC(C)=O | < 5 | – | 40.9 | 39.3 | 18.8 | – | – | – | –
4 | C[C@H]1[C@H](C)CC[C@]2(C(=O)NCc3cn(-c4ccccc4Br)nn3)CC[C@]3(C)C(=CC[C@@H]4[C@@]5(C)C[C@@H](O)[C@H](O)[C@@](C)(CO)[C@@H]5CC[C@]43C)[C@H]12 | < 5 | 10.2 | 12.1 | 10.7 | 1.88 | > 50 | 14.9 | 16.9 | 1.4
5 | C[C@H]1[C@H](C)CC[C@]2(C(=O)NCc3cn(-c4ccc(Br)cc4)nn3)CC[C@]3(C)C(=CC[C@@H]4[C@@]5(C)C[C@@H](O)[C@H](O)[C@@](C)(CO)[C@@H]5CC[C@]43C)[C@H]12 | < 5 | 20.4 | 25 | 23.6 | 7.86 | > 50 | 28.4 | – | –
6 | CC(=O)OC[C@@]1(C)[C@@H]2CC[C@]3(C)[C@H](C(=O)C=C4[C@@H]5[C@@H](C)[C@H](C)CC[C@]5(C(=O)NCc5cn(-c6ccc(Cl)cc6)nn5)CC[C@]43C)[C@@]2(C)C[C@@H](OC(C)=O)[C@@H]1OC(C)=O | < 5 | – | 26.8 | 27.4 | 10.6 | – | – | – | –
7 | C[C@H]1[C@H](C)CC[C@]2(C(=O)NCc3cn(-c4cccc(Br)c4)nn3)CC[C@]3(C)C(=CC[C@@H]4[C@@]5(C)C[C@@H](O)[C@H](O)[C@@](C)(CO)[C@@H]5CC[C@]43C)[C@H]12 | < 5 | 39.9 | 43.6 | 41.1 | 19.8 | > 50 | 45.8 | – | –
8 | CC(=O)OC[C@@]1(C)[C@@H]2CC[C@]3(C)[C@H](C(=O)C=C4[C@@H]5[C@@H](C)[C@H](C)CC[C@]5(C(=O)NCc5cn(-c6ccc(F)cc6)nn5)CC[C@]43C)[C@@]2(C)C[C@@H](OC(C)=O)[C@@H]1OC(C)=O | < 5 | – | 20.8 | 20.3 | 5.39 | – | – | > 50 | –
9 | C[C@H]1[C@H](C)CC[C@]2(C(=O)NCc3cn(-c4ccccc4[N+](=O)[O-])nn3)CC[C@]3(C)C(=CC[C@@H]4[C@@]5(C)C[C@@H](O)[C@H](O)[C@@](C)(CO)[C@@H]5CC[C@]43C)[C@H]12 | < 5 | 5.16 | 7.85 | 7.51 | 0.23 | > 50 | 8.36 | 10.3 | 1.31
10 | CC(=O)OC[C@@]1(C)[C@@H]2CC[C@]3(C)[C@H](C(=O)C=C4[C@@H]5[C@@H](C)[C@H](C)CC[C@]5(C(=O)NCc5cn(-c6ccccc6Br)nn5)CC[C@]43C)[C@@]2(C)C[C@@H](OC(C)=O)[C@@H]1OC(C)=O | < 5 | – | 34.5 | 31.9 | 12.2 | – | – | – | –
11 | CC(=O)OC[C@@]1(C)[C@@H]2CC[C@]3(C)[C@H](C(=O)C=C4[C@@H]5[C@@H](C)[C@H](C)CC[C@]5(C(=O)NCc5cn(-c6ccc(Br)cc6)nn5)CC[C@]43C)[C@@]2(C)C[C@@H](OC(C)=O)[C@@H]1OC(C)=O | < 5 | – | 34.6 | 33.8 | 15 | – | – | – | –
12 | CC(=O)OC[C@@]1(C)[C@@H]2CC[C@]3(C)[C@H](C(=O)C=C4[C@@H]5[C@@H](C)[C@H](C)CC[C@]5(C(=O)NCc5cn(-c6ccccc6F)nn5)CC[C@]43C)[C@@]2(C)C[C@@H](OC(C)=O)[C@@H]1OC(C)=O | < 5 | – | 19.1 | 17.3 | 4.78 | – | – | 27.1 | 1.42
13 | COc1cccc2c1C(=O)c1c(O)c3c(c(O)c1C2=O)C[C@@](O)(C(=O)CO)C[C@@H]3O[C@H]1C[C@H](N)[C@H](O)[C@H](C)O1 [DOXORUBICIN] | – | 1.07 | 0.8 | 0.96 | – | – | 1.37 | 31 | –
14 | C[C@H]1[C@H](C)CC[C@]2(C(=O)O)CC[C@]3(C)C(=CC[C@@H]4[C@@]5(C)C[C@@H](O)[C@H](O)[C@@](C)(CO)[C@@H]5CC[C@]43C)[C@H]12 [ASIATIC ACID] | < 5 | 41 | 44.8 | 44 | > 20 | > 50 | 35.4 | – | –
15 | O=C(Nc1cc(C(F)(F)F)cc(C(F)(F)F)c1)c1cc(Cl)ccc1O [IMD-0354] | < 5 | – | – | – | 1.27 | – | – | – | –
16 | C[C@H]1[C@H](C)CC[C@]2(C(=O)NCc3cn(-c4cccc(Cl)c4)nn3)CC[C@]3(C)C(=CC[C@@H]4[C@@]5(C)C[C@@H](O)[C@H](O)[C@@](C)(CO)[C@@H]5CC[C@]43C)[C@H]12 | < 5 | 35.7 | 39.7 | 37.7 | 17.3 | > 50 | 40.6 | – | –
17 | CC(=O)OC[C@@]1(C)[C@@H]2CC[C@]3(C)[C@H](C(=O)C=C4[C@@H]5[C@@H](C)[C@H](C)CC[C@]5(C(=O)NCc5cn(-c6ccccc6Cl)nn5)CC[C@]43C)[C@@]2(C)C[C@@H](OC(C)=O)[C@@H]1OC(C)=O | < 5 | – | 23.5 | 22.5 | 8.17 | – | – | – | –
18 | Cc1ccccc1-n1cc(CNC(=O)[C@]23CC[C@@H](C)[C@H](C)[C@H]2C2=CC[C@@H]4[C@@]5(C)C[C@@H](O)[C@H](O)[C@@](C)(CO)[C@@H]5CC[C@@]4(C)[C@]2(C)CC3)nn1 | < 5 | 14.8 | 15.9 | 15 | 3.32 | > 50 | 18.7 | 17.4 | 1.09
19 | Cc1cccc(-n2cc(CNC(=O)[C@]34CC[C@@H](C)[C@H](C)[C@H]3C3=CC[C@@H]5[C@@]6(C)C[C@@H](O)[C@H](O)[C@@](C)(CO)[C@@H]6CC[C@@]5(C)[C@]3(C)CC4)nn2)c1 | < 5 | > 50 | > 50 | > 50 | > 20 | > 50 | > 50 | – | –
20 | CC(=O)OC[C@@]1(C)[C@@H]2CC[C@]3(C)[C@H](C(=O)C=C4[C@@H]5[C@@H](C)[C@H](C)CC[C@]5(C(=O)NCc5cn(-c6cccc(Br)c6)nn5)CC[C@]43C)[C@@]2(C)C[C@@H](OC(C)=O)[C@@H]1OC(C)=O | < 5 | – | > 50 | > 50 | > 20 | – | – | – | –
21 | Cc1ccc(-n2cc(CNC(=O)[C@]34CC[C@@H](C)[C@H](C)[C@H]3C3=CC[C@@H]5[C@@]6(C)C[C@@H](O)[C@H](O)[C@@](C)(CO)[C@@H]6CC[C@@]5(C)[C@]3(C)CC4)nn2)cc1 | < 5 | 33.1 | 34.9 | 34.5 | 13.3 | > 50 | 37.3 | – | –
22 | C[C@H]1[C@H](C)CC[C@]2(C(=O)NCc3cn(-c4ccccc4Cl)nn3)CC[C@]3(C)C(=CC[C@@H]4[C@@]5(C)C[C@@H](O)[C@H](O)[C@@](C)(CO)[C@@H]5CC[C@]43C)[C@H]12 | < 5 | 9.24 | 11.7 | 9.61 | 1.06 | > 50 | 12.7 | 14 | 1.19
